Data as given in patent US20240218019A1, “METHODS AND COMPOSITIONS COMPRISING MHC CLASS I PEPTIDES” (BOARD OF REGENTS, THE UNIVERSITY OF TEXAS SYSTEM, priority 2021, published 2024).

What was measured:
[1] = LS patients, long-term exposure; cited from earlier work
[2] = tested on: PBMCs from LS Rhesus macaques; test: IFNγ ELISpot assay with PBMCs from LS Rhesus macaques; format: cell-based; conditions: stimulated 48 h (FIG. 22B)
Method: FIG. 22A-B. Validation of the predicted neoAg in LS Rhesus macaques. A) Immunogenicity of neoAg peptide pools and deconvoluted neoAg with ELISpot assay. PBMCs from LS Rhesus macaques (n=4) were stimulated with […] and 12 individual peptides from the pools, concavalin A (+ve control), and DMSO (−ve control) for 48 h. B) ELISpot images. […] Spot forming Units for IFNγ secretion were analyzed and quantitated by ELISpot plate reader.
Since the ultimate goal is to develop a universal LS-cancer vaccine. the inventors then tested the immunogenicity of the ELISpot-reactive peptides in PBMCs from LS Rhesus macaques who carry a pathogenic mutation in the MLH1 gene with pathology similar to human LS. These animals. housed at MD Anderson Cancer Center, spontaneously develop CRC and serve as an ideal preclinical LS model for immune-interception strategies with neoAg vaccines. PBMCs from four different LS Rhesus were stimulated with four peptide pools and 12 individual peptides for ELISpot assays as indicated in FIG. 22A.

| Compound | resident immune cells within the mucosal tissue of the colon [1] | immunogenicity of deconvoluted peptides in stimulated rhesus PBMC (ELISpot) [2] |
| --- | --- | --- |
| COc1ccc2cc([C@H](C)C(=O)O)ccc2c1 [naproxen] | increase of resident immune cells within the mucosal tissue of the colon | – |
| CELSR2: deconvoluted neoAg peptide from CELSR2, tested in LS Rhesus PBMCs (RLDKGNFAGA) | – | except PLOD1 and CELSR2 were determined immunogenic |
